Test results reported in patent publication US20250154597A1, “TRANSCRIPTIONAL REPROGRAMMING DIFFERENTIATES ACTIVE FROM INACTIVE ESR1 FUSIONS IN ENDOCRINE THERAPY-REFRACTORY METASTATIC BREAST CANCER” (Baylor College of Medicine, priority 2021, published 2025).

T1: WT ERα protein (Homo sapiens, UniProt P03372)
T1 sequence (P03372 1-595): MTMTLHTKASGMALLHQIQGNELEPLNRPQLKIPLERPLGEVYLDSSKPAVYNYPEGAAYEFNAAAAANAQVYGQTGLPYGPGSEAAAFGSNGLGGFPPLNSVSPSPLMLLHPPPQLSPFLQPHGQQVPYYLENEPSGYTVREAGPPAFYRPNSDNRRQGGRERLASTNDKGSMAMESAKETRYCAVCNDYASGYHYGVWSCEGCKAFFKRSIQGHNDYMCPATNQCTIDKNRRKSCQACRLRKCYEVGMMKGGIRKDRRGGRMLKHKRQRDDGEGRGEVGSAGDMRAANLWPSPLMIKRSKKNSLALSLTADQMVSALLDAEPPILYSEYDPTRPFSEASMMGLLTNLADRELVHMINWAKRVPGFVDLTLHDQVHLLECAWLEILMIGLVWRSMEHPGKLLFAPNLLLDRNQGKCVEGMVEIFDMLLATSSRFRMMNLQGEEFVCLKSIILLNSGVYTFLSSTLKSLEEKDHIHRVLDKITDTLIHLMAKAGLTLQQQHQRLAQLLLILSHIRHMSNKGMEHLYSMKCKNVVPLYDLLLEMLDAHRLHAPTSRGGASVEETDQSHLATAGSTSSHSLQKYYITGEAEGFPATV

T2: ESR1-e6>PCDH11X fusion protein, C-terminal HA-tagged (UniProt P03372 1-365; Q9BZA7 1013-1347, limits assumed)
T2 construct: Stably expressed in T47D cells by lentiviral transduction; not shown: C-terminal HA tag
T2 sequence (looked up): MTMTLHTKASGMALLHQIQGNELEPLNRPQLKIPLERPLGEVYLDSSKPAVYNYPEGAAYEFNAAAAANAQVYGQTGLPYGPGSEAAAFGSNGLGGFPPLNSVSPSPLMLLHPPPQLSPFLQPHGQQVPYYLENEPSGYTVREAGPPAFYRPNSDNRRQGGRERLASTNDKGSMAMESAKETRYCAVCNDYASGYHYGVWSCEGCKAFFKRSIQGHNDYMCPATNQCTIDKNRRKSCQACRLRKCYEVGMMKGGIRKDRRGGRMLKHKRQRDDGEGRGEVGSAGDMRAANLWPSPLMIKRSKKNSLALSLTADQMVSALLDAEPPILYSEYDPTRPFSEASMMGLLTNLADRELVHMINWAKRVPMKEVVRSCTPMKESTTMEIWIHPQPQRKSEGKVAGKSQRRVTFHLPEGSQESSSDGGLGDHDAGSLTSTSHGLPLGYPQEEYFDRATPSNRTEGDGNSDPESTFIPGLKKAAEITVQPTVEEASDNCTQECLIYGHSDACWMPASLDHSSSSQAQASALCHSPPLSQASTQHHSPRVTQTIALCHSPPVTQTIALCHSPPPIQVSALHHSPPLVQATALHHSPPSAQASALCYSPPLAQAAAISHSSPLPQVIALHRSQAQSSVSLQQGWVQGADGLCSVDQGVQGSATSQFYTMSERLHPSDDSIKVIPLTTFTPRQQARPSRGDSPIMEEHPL

T3: ESR1-e6>SOX9 fusion protein, HA-tagged (UniProt P03372 1-365; P48436 229-509, limits assumed)
T3 construct: Stably expressed in T47D cells by lentiviral transduction; not shown: HA tag (constructed in a similar fashion to the C-terminal HA-tagged constructs)
T3 sequence (looked up): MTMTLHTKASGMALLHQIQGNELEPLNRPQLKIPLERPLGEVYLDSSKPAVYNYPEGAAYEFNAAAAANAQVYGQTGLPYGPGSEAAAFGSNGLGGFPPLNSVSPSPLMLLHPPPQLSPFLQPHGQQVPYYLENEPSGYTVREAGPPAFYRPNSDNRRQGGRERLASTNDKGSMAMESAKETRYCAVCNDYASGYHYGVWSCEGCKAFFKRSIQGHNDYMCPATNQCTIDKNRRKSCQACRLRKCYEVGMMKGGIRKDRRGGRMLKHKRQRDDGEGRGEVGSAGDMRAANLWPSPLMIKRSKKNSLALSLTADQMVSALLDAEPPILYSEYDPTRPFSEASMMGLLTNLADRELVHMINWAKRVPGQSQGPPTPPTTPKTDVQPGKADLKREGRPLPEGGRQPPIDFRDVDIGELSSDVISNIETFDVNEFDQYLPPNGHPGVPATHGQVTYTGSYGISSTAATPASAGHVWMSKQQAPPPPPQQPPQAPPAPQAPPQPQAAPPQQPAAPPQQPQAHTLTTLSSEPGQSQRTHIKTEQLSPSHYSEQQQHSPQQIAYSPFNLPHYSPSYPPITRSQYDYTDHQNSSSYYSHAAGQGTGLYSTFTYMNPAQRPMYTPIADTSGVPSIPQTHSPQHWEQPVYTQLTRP

B1: endogenously expressed ERα (wild-type estrogen receptor alpha, encoded by ESR1) (receptor, UniProt P03372 1-595, looked up)
chain: T1 sequence (P03372 1-595)
notes: also called WT ERα; endogenous ERα

Tests used:
[1] = system: T47D cells expressing active ESR1 fusion proteins; test: Expression of estrogen response and EMT-related genes (RT-qPCR, immunoblotting); assay type: cell-based; conditions: 100 nM fulvestrant; E2-deprived T47D cells
Method: (§1) Immunoblotting and immunoprecipitation—Cells were harvested and whole cell lysates were prepared in RIPA lysis buffer as described (7) or in MIB lysis buffer (10) supplemented with 1× protease inhibitors and 1× phosphatase inhibitors (Roche) by sonication for 2 minutes. To make ER+ PDX tumor lysates, frozen PDX tumors were cryopulverized with a Covaris CP02 Pulverizer and then protein was extracted in MIB lysis buffer with sonication. Protein concentration determination and SDS-PAGE ([…] protein per lane) were performed as described (7). Immunoblotting of nitrocellulose membranes was performed as described (7). Primary and HRP-conjugated secondary antibodies employed are listed in the Supplementary information.
Reverse transcription-quantitative PCR (RT-qPCR)—RNA was isolated from hormone-deprived stable T47D cells as above with concentration determined using a NanoDrop spectrophotometer. […]
To define the transcriptional profile driven by active ESR1 fusion proteins, RNA-Seq was performed on T47D cells expressing these ESR1 fusion cDNAs as well as control (YFP, ESR1-e6, and ESR1-WT) cells in the presence and absence of E2. […] The expression of three canonical estrogen response genes in stably transfected T47D cells were validated using reverse transcription-quantitative PCR (RT-qPCR). […]

WT ERα protein = target: T1, WT ERα protein; test: Immunoblotting of endogenous WT ERα after fulvestrant treatment; assay type: cell-based; conditions: 100 nM fulvestrant; hormone-deprived stable T47D and MCF7 cells
Method: Immunoblotting and immunoprecipitation—Cells were harvested and whole cell lysates were prepared in RIPA lysis buffer as described (7) or in MIB lysis buffer (10) supplemented with 1× protease inhibitors and 1× phosphatase inhibitors (Roche) by sonication for 2 minutes. […] Protein concentration determination and SDS-PAGE (20 g protein per lane) were performed as described (7). Immunoblotting of nitrocellulose membranes was performed as described (7). Primary and HRP-conjugated secondary antibodies employed are listed in the Supplementary information.

T47D cells = test: Cell growth, alamarBlue assay; assay type: cell-based; conditions: 100 nM fulvestrant, 7-10 days
Method: Cell growth, motility and invasion assays—Cell growth assays of different ESR1 fusion protein expressing breast cancer cells that were first hormone-deprived and then subsequently treated either with 100 nM fulvestrant in the presence or absence of 10 nM E2 for 7-10 days were performed in 96-well plates using an alamarBlue™ assay as described (7). Cell growth reading values were normalized to that of control YFP cells, −E2.
(§2) To characterize each chimeric ESR1 fusion protein, HA-tagged cDNA constructs were expressed in two ER+ breast cancer cell lines (T47D and MCF7) by lentiviral transduction. Stable cell lines expressing yellow fluorescent protein (YFP) were generated as negative controls. Truncated ESR1 (ESR1-e6 protein) and wild-type ESR1 (ESR1-WT protein) were also stably expressed to provide over-expression controls (FIGS. 2A and 2D). When cells were treated with 100 nM fulvestrant, a selective ERα degrader that inhibits endogenous ERα (21), the level of ESR1 fusion protein was predictably unaffected. In comparison, the WT ERα protein was reliably degraded, providing an endogenous control for fulvestrant activity (FIGS. 2A and 2D). […] Cell growth was measured using an alamarBlue assay. […]

ESR1 fusion protein = test: Immunoblotting of ESR1 fusion proteins after fulvestrant treatment; assay type: cell-based; conditions: 100 nM fulvestrant; hormone-deprived stable T47D and MCF7 cells
Method: as §1
as §2, with “unaffected.” for “unaffected. In comparison, the WT ERα protein was reliably degraded, providing an endogenous control for fulvestrant activity (FIGS. 2A and 2D).”

[2] = target: T2, ESR1-e6>PCDH11X fusion protein, …; test: co-immunoprecipitation: anti-HA IP from hormone-deprived T47D cell lysates with or without 100 nM E2, blot with C-terminal ERα antibody
[3] = target: T4, ESR1-e6>YAP1 fusion protein, C-terminal HA-tagged (UniProt P03372 1-365; P46937 230-504, limits assumed); test: as above
T4 construct: Stably expressed in T47D cells by lentiviral transduction; also called ESR1-YAP1; not shown: C-terminal HA tag

[4] = target: T3, ESR1-e6>SOX9 fusion protein, HA-tagged; test: as above

Row | Molecule | expression of estrogen response and EMT-related genes induced by active ESR1 fusion proteins [1] | level of WT ERα protein (WT ERα protein) | E2-independent growth of T47D cells expressing ESR1-e6>YAP1, >PCDH11X, >SOX9, >ARNT2-e18 (T47D cells) | level of ESR1 fusion protein (ESR1 fusion protein) | binding result [2] | binding result [3] | binding result [4]
1 | C[C@]12CC[C@@H]3c4ccc(O)cc4C[C@@H](CCCCCCCCC[S+]([O-])CCCC(F)(F)C(F)(F)F)[C@H]3[C@@H]1CC[C@@H]2O (stereo partly shown) [fulvestrant] | unaffected | degraded | uniformly resistant to fulvestrant | unaffected |  |  | 
2 | B1 |  |  |  |  | no binding | no binding | no binding
